{"source": "patent US9000015B2", "about": "“Compounds for the treatment of addiction” (Gilead Sciences, Inc., priority 2011, dated 2015)", "key": {"HMAO-B": {"molecular_target": "HMAO-B (Homo sapiens (Human), UniProt P27338)", "sequence (P27338 whole entry)": "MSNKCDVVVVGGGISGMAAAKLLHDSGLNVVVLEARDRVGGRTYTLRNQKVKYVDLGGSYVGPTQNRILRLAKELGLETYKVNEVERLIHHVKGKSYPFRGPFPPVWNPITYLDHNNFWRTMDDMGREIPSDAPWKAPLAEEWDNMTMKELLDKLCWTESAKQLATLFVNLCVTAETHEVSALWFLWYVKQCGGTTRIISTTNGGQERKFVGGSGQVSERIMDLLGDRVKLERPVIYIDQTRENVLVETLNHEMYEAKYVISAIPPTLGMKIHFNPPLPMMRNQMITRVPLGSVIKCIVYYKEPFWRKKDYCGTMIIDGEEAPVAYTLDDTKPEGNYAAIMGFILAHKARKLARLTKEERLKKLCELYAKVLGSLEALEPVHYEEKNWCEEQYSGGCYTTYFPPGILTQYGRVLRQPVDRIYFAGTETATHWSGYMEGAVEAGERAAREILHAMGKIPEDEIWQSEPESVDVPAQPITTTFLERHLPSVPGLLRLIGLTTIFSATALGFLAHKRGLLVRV", "test": "MAO-B assay (luminogenic MAO substrate)", "type": "biochemical", "details": "microsome MAO-B, 16 uM substrate", "method": "(§1) MAO assays included luminogenic MAO substrate, reaction buffers, Luciferin Detection and the reconstitution buffer with eserase. Standard MAO reaction mixtures included microsome contained MAO-A (2 ug) or MAO-B (10 ug), 160 uM substrate for MAO-A or 16 uM substrate for MAO-B, MAO-A buffer (100 mM Hepes buffer, pH 7.5, 5% glycerol) or MAO-B buffer (100 mM Hepes, pH 7.5, 5% glycerol, 10% dimethyl sulfoxide) in a final volume of 30 ul. After 20 minutes of pre-incubation of the enzyme with compounds, the reaction was initiated by adding enzyme substrate and the reaction was allowed to proceed for 60 minutes. Reconstituted Luciferin Detection Reagent (30 ul) was then added is added to simultaneously stop the MAO reaction and convert the methyl ester derivative to luciferin and produce light. The amount of light produced is directly proportional to the activity of MAO. The mixtures were further incubated for 20 minutes and activity of the enzyme was determined using Perkin-Elmer Envision Reader.\n(§2) Note: […] refers to the concentration of a compound that inhibits a reaction by 50%. In the case of competitive inhibition, IC50=2Ki when the substrate is present at the Km concentration, as per the relationship: Ki=IC50/[1+(substrate concentration/Km)]."}, "Male SD rats [1]": {"system": "Male SD rats", "test": "Rat nicotine self administration, acute treatment", "type": "in vivo", "details": "independent groups", "method": "(§3) Male SD rats were trained to self administer i.v. nicotine (0.03 mg/kg/inj) daily (Monday to Friday) in standard operant chambers with retractable levers (MED Associates, Inc) as previously published (Levin et al., 2003; Levin et al., 2007). During the daily 45 min session, rats received 0.05 ml infusion of 0.03 mg/kg/infusion of nicotine every time the active lever was pressed. A cue light and tone turned on for 0.5 sec together with the activation of a pump that delivered the nicotine solution. Daily sessions were run for at least 10 days before the initiation of drug testing. Solutions of compounds of Example 2 and Example 5 were prepared fresh daily in Formulation 2B: 25% PEG400/5% Vit E TPGS/1% SLS/69% water with 0.5% Methocel) for oral dosing. Compound of Example 2 doses were administered in a counterbalanced design for testing 1 hr before each nicotine session. Every rat received all drug doses and vehicle in a randomly assigned order. The oral drug administrations were made twice per week.\nCompound of Example 5 was tested in a study using 4 independent groups. Each group received either oral vehicle or 1 of the 3 doses of compound of Example 5 (5, 10 or 30 mg-eq/kg). […] The 5 mg/kg dose was ineffective."}, "[2]": {"system": "male Sprague Dawley (SD) rats", "test": "Rat cocaine cue reinstatement", "type": "in vivo", "details": "for inhibition of cocaine cue reinstatement compared to vehicle: 1 hr before session", "method": "Training of male Sprague Dawley (SD) rats had 3 separate stages. First, during self administration, animals were trained to lever press for cocaine with presentation of concomitant cues associated with drug delivery. Rats that reached criteria for addiction were included in the study. Afterward, during cue extinction, cocaine-cue dependent behavior was extinguished. Lastly, during cocaine cue reinstatement, the effect of compounds was tested on lever presses upon cue presentation (FIG. 2).\nRats were trained to self administer i.v. cocaine (0.35 mg/kg/injection) daily (Monday to Friday) in standard operant chambers with retractable levers (Coulbourn Instruments, PA). During the daily 2 hr session, rats received a 0.05 ml infusion of 0.35 mg/kg cocaine every time the active lever was pressed. A cue light and tone turned on for 2 sec together with activation of a pump that delivered the cocaine solution. Rats were required to maintain an infusion rate of ≧20+ per day for at least 10 days before being moved to extinction training.\nDuring extinction sessions lever presses no longer produced cocaine infusion and cue light/tone presentation was absent. Rats received a maximum of 15 extinction sessions.\nOn the next day after reaching extinction criteria, rats were treated orally with vehicle (Formulation 2B: 25% PEG400/5% Vit E TPGS/1% SLS/69% water with 0.5% Methocel) or drug (compound of Example 2 or compound of Example 5) before the cue reinstatement session. Cue reinstatement began with a tone and cue light. This 2 hr session was identical to the self-administration session (cue light and tone present upon active lever press) except that no cocaine was delivered. The number of active lever presses was compared to extinction lever responding. This is considered a measure of reinstatement. The next day, rats were returned to extinction sessions for at least 2 or 3 more sessions. Rats then received a second and last reinstatement session with an opposite treatment to the one received on the first reinstatement session (vehicle or drug treatment). […] The light/tone presentation triggers this response and it is interpreted as a measure of reinstatement even though cocaine is not available."}, "[3]": {"system": "Alcohol-preferring (iP) male rats", "test": "Rat alcohol self administration", "type": "in vivo", "details": "1 hr before session, vs vehicle", "source_text": "Alcohol-preferring (iP) male rats were trained to daily (Monday to Friday) self-administer alcohol (10% v/v) under operant conditions. A fixed-ratio of 3 (FR3), where rats had to press a lever 3 times to get one drop of alcohol during 20-min sessions was used (Cowen et al, 2005a; Cowen et al., 2005b; Lawrence et al., 2006). Availability of alcohol was conditioned by the presence of an olfactory cue (2 drops of vanilla essence, placed on the bedding of the operant chamber directly under the active lever), plus a 1-sec light stimulus when FR3 was obtained. For each session, total alcohol and water responses were recorded. Following acquisition of lever pressing behavior and stable alcohol self-administration, rats were administered oral vehicle or compound of Example 5 (5, 10 and 30 mg-eq/kg) 1 hr before each session in a counterbalanced order. Every rat received all drug doses and vehicle once per week in a randomly assigned order."}, "HMAO-A": {"molecular_target": "HMAO-A (Homo sapiens (Human), UniProt P21397)", "sequence (P21397 whole entry)": "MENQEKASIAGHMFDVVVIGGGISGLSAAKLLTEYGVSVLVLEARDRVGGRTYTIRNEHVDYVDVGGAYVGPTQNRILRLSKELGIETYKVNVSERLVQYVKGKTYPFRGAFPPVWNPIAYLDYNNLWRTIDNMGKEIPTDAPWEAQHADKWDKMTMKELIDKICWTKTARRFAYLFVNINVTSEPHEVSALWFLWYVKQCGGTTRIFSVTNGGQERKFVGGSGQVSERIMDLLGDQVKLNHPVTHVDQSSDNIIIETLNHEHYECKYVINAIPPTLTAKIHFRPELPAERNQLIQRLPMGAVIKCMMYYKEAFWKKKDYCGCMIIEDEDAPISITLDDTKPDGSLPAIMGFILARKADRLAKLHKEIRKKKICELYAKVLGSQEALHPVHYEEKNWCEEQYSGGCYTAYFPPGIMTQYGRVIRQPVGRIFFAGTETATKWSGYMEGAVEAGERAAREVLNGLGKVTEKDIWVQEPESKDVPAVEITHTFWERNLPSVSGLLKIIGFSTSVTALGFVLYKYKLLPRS", "test": "MAO-A assay (luminogenic MAO substrate)", "type": "biochemical", "details": "microsome MAO-A, 160 uM substrate", "method": "as §1, §2"}, "Male SD rats [4]": {"system": "Male SD rats", "test": "Rat nicotine self administration, 7-day chronic treatment", "type": "in vivo", "method": "as §3\nUpon completion of the acute compound of Example 5 treatment study, the same animals were used to test the effect of 7-day chronic oral administration of compound of Example 5 in the nicotine self administration model. Rats were treated orally with compound of Example 5 (5, 10 or 30 mg-eq/kg) or vehicle 1 hr before nicotine self administration session for 7 consecutive days. […] Similar to the acute treatment, the 5 mg-eq/kg dose was ineffective (FIG. 7). […] Animals in nicotine self administration studies had to reach pre defined criteria (e.g. rat strain, minimum number of nicotine infusions, consistent baseline nicotine self administration throughout the study, patent iv catheters, etc.) to be included in analysis."}, "recombinant human ALDH2": {"molecular_target": "recombinant human ALDH2 (Homo sapiens (Human), UniProt P05091)", "sequence (P05091 18-517)": "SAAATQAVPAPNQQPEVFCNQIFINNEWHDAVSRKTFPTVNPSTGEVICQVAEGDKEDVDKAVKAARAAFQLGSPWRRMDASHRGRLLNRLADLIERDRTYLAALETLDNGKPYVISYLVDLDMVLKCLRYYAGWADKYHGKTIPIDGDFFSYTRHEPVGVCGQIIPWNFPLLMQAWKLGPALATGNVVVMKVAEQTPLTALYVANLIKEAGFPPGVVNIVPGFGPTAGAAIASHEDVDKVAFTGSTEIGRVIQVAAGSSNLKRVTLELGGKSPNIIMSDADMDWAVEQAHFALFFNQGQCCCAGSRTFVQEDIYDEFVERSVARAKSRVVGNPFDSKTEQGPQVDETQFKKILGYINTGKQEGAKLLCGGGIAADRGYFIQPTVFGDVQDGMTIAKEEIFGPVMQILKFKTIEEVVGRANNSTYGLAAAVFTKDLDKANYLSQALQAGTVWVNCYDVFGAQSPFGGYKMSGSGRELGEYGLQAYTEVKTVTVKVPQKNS", "test": "ALDH2 assay (NADH formation)", "type": "biochemical", "details": "60 min pre-incubation, 150 uM formaldehyde, 2.5 mM NAD+; read-out: IC50 HALDH2", "method": "Standard ALDH2 reaction mixtures contained 150 uM formaldehyde, 2.5 mM NAD^+, 10 mM MgCl2 and 10 nM recombinant human ALDH2 in 50 mM Hepes buffer, pH 7.4, 0.01% Tween 20 in a final volume of 50 ul using 384-well plates. After 60 min of pre-incubation of compound with ALDH2 and formaldehyde, the reaction was started by adding NAD+ and the reaction mixture was allowed to proceed for 90 minutes. Activity of the enzyme was determined by monitoring NADH formation using Perkin-Elmer Envision Reader with excitation and emission wavelengths set at 340 and 460 nm, respectively.\nas §2"}}}
{"smiles": "O=C(NCc1ccc(-c2ccn(COP(=O)(O)O)c(=O)c2)cc1)c1c(Cl)cccc1Cl", "note": "[Compound 14, phosphoric acid mono-(4-{4-[(2,6-dichloro-benzoylamino)-methyl]-phenyl}-2-oxo-2H-pyridin-1-ylmethyl) ester]", "values": [{"measurement": "IC50", "setting": "HMAO-B", "value": "> 130", "unit": "µM"}, {"measurement": "effect on number of nicotine infusions compared to vehicle", "setting": "Male SD rats [1]; 5 mg-eq/kg oral", "value": "ineffective"}, {"measurement": "inhibition of number of nicotine infusions compared to vehicle", "setting": "Male SD rats [1]; 10 mg-eq/kg oral", "value": 51, "unit": "%"}, {"measurement": "inhibition of number of nicotine infusions compared to vehicle", "setting": "Male SD rats [1]; 30 mg-eq/kg oral", "value": 68, "unit": "%"}, {"measurement": "inhibition of cocaine cue reinstatement compared to vehicle", "setting": "[2]; 2.5 mg-eq/kg oral, p>0.05, N.S.", "value": 30, "unit": "%"}, {"measurement": "effect on cocaine cue reinstatement versus vehicle", "setting": "[2]; 2.5 mg-eq/kg oral, lowest dose tested", "value": "not significantly different from vehicle"}, {"measurement": "inhibition of cocaine cue reinstatement compared to vehicle", "setting": "[2]; 5 mg-eq/kg oral", "value": 59, "unit": "%"}, {"measurement": "inhibition of cocaine cue reinstatement compared to vehicle", "setting": "[2]; 10 mg-eq/kg oral", "value": 55, "unit": "%"}, {"measurement": "inhibition of cocaine cue reinstatement compared to vehicle", "setting": "[2]; 30 mg-eq/kg oral", "value": 50, "unit": "%"}, {"measurement": "number of lever presses for alcohol", "setting": "[3]; 10 mg-eq/kg oral", "value": "significantly decreased"}, {"measurement": "number of lever presses for alcohol", "setting": "[3]; 30 mg-eq/kg oral", "value": "significantly decreased"}, {"measurement": "IC50", "setting": "HMAO-A", "value": "> 130", "unit": "µM"}, {"measurement": "effect on number of nicotine infusions compared to vehicle", "setting": "Male SD rats [4]; 5 mg-eq/kg oral, 7 consecutive days", "value": "ineffective"}, {"measurement": "inhibition of number of nicotine infusions compared to vehicle", "setting": "Male SD rats [4]; 10 mg-eq/kg oral, 7 consecutive days", "value": 48, "unit": "%"}, {"measurement": "inhibition of number of nicotine infusions compared to vehicle", "setting": "Male SD rats [4]; 30 mg-eq/kg oral, 7 consecutive days", "value": 62, "unit": "%"}, {"measurement": "tolerance to the therapeutic effect", "setting": "Male SD rats [4]; 7-day chronic oral administration, data not shown", "value": "no development of tolerance"}, {"measurement": "IC50", "setting": "recombinant human ALDH2", "value": "> 10", "unit": "µM"}]}
